In brackets after ≈: the same amount, converted by molar mass.

The values that follow come from patent publication US9502658B2, “Fullerene derivatives and related materials, methods, and devices” (Nano-C, Inc., priority 2013, dated 2016).

This series is described as follows: Solubility in o-dichlorobenzene by UV-vis absorbance at 360 nm. The settings on record: for solubility in o-dichlorobenzene: room temperature (about 22° C.).

Consider `CCCCC1c2ccccc2C(CCCC)C23c4c5c6c7c8c9c(c%10c%11c2c2c4c4c%12c5c5c6c6c8c8c%13c9c9c%10c%10c%11c%11c2c2c4c4c%12c%12c5c5c6c8c6c8c%13c9c9c%10c%10c%11c2c2c4c4c%12c5c6c5c8c9c%10c2c45)C713` (centres unmarked) [Fullerene 3], for which the solubility in o-dichlorobenzene is 9.3 mg/mL (≈ 9.92 mM).
The compound `c1ccc2c(c1)CC13c4c5c6c7c8c9c(c%10c%11c1c1c%12c4c4c%13c5c5c7c7c8c8c%14c9c%10c9c%10c%11c1c1c%11c%12c4c4c%12c%13c5c5c7c7c8c8c%14c9c9c%10c1c1c%11c4c4c%12c5c7c5c8c9c1c45)C63C2` (centres unmarked) [oQDM-C60, reference compound] showed a solubility in o-dichlorobenzene of 5.8 mg/mL (≈ 7.03 mM). For the same compound, where the note is “in words, compared to the fullerenes according to the invention”, the “solubility in common organic solvents” value is on record as “lower solubility”.
Turning to `CCCCCCC1c2ccccc2C(CCCCCC)C23c4c5c6c7c8c9c(c%10c%11c2c2c4c4c%12c5c5c6c6c8c8c%13c9c9c%10c%10c%11c%11c2c2c4c4c%12c%12c5c5c6c8c6c8c%13c9c9c%10c%10c%11c2c2c4c4c%12c5c6c5c8c9c%10c2c45)C713` (centres unmarked) [Fullerene 4], the solubility in o-dichlorobenzene is 45 mg/mL (≈ 45.3 mM).
For the compound `CCCCCCCC1c2ccccc2C(CCCCCCC)C23c4c5c6c7c8c9c(c%10c%11c2c2c4c4c%12c5c5c6c6c8c8c%13c9c9c%10c%10c%11c%11c2c2c4c4c%12c%12c5c5c6c8c6c8c%13c9c9c%10c%10c%11c2c2c4c4c%12c5c6c5c8c9c%10c2c45)C713` (centres unmarked) [Fullerene 5], the solubility in o-dichlorobenzene is 20 mg/mL (≈ 19.6 mM).
